# Assay results as given in the Kinase Knowledgebase extract (Sharma et al. 2016).
# Where “and” joins values, the source holds several entries; their conditions need not be identical. Identical values can stand only once.
# Molecular target: MAPK14 (human) (UniProt Q16539)
# Test: Inhibition of LPS Stimulated TNF Production by U937 Cells
# Settings: not given
# MAPK14 (human), sequence (Q16539 whole entry, looked up): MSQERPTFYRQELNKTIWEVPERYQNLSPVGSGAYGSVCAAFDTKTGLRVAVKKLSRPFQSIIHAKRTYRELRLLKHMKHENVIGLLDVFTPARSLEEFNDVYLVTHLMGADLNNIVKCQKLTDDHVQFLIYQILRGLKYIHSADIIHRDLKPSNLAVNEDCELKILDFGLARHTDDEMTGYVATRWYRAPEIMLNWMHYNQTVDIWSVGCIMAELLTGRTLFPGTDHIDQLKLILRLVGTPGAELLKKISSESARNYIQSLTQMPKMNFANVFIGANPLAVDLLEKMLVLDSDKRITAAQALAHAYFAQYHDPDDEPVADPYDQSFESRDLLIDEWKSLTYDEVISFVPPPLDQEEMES
row,Compound,IC50
1,O=C(c1ccc(Cl)cc1)N1CCC(c2[nH]nc(-c3ccc(F)cc3)c2-c2ccncc2)CC1,0.57 µM
2,O=C(NCCc1[nH]nc(-c2ccc(F)cc2)c1-c1ccncc1)Nc1ccc(F)cc1,2.71 µM
3,COc1ccc(CC(=O)N[C@H](Cc2ccccc2)c2[nH]nc(-c3ccc(F)cc3)c2-c2ccncc2)cc1OC,> 1 µM
4,O=S(=O)(NCCCc1[nH]nc(-c2ccc(F)cc2)c1-c1ccncc1)c1ccccc1Br,0.48 µM
5,Fc1ccc(CNc2cc(-c3cn(CCN4CCOCC4)nc3-c3ccc(F)cc3)ccn2)cc1,0.179 µM and 0.45 µM
6,C[C@@H](NS(=O)(=O)Cc1ccccc1)c1[nH]nc(-c2ccc(F)cc2)c1-c1ccncc1,0.05 µM
7,CC(C)NC(=O)NCc1[nH]nc(-c2ccc(F)cc2)c1-c1ccncc1,10 µM
8,Cc1n[nH]c(-c2ccccc2)c1-c1ccncc1,0.578 µM
9,OCCCNc1cc(-c2c[nH]nc2-c2ccc(F)cc2)ccn1,0.0973 µM
10,CN(C)CCn1cc(-c2ccncc2)c(-c2ccc(F)cc2)n1,0.254 µM
11,CN(C(=O)N[C@H](Cc1ccccc1)c1[nH]nc(-c2ccc(F)cc2)c1-c1ccncc1)c1ccccc1,> 1 µM
12,CNC(=O)CC[C@H](NC(=O)c1ccccc1F)c1[nH]nc(-c2ccc(F)cc2)c1-c1ccncc1,> 1 µM
13,CCS(=O)(=O)N1CCC(c2[nH]nc(-c3ccc(F)cc3)c2-c2ccncc2)CC1,0.25 µM
14,OCCn1cc(-c2ccnc(/C=C/c3ccc(F)cc3)c2)c(-c2ccc(F)cc2)n1,0.347 µM
15,Cn1nc(-c2ccc(F)cc2)c(-c2ccncc2)c1Br,1.4 µM
16,Fc1ccc(-c2n[nH]cc2-c2ccnc(NCCN3CCOCC3)c2)cc1,0.539 µM
17,CS(=O)(=O)c1ccc(CNC(=O)NCCCc2[nH]nc(-c3ccc(F)cc3)c2-c2ccncc2)cc1,> 1 µM
18,COc1ccccc1C(=O)N[C@H](Cc1ccccc1)c1[nH]nc(-c2ccc(F)cc2)c1-c1ccncc1,> 1 µM
19,O=C(C1CC1)N1CCC(c2[nH]nc(-c3ccc(F)cc3)c2-c2ccncc2)CC1,0.27 µM
20,Fc1ccc(-c2[nH]nc(-c3ccccc3)c2-c2ccncc2)cc1,0.077 µM
21,COc1cccc(CC(=O)N2CCC(c3[nH]nc(-c4ccc(F)cc4)c3-c3ccncc3)CC2)c1,0.77 µM

# Same assay, conditions: concentration not given here
row,Compound,inhibition [%]
1,C[C@H](NC(=O)Cc1cccs1)c1[nH]nc(-c2ccc(F)cc2)c1-c1ccncc1,28
2,O=C(NCCCc1[nH]nc(-c2ccc(F)cc2)c1-c1ccncc1)NCC1CC1,36
3,C[C@@H](NS(=O)(=O)c1ccccc1)c1[nH]nc(-c2ccc(F)cc2)c1-c1ccncc1,54
4,O=C(NCCc1[nH]nc(-c2ccc(F)cc2)c1-c1ccncc1)Nc1ccc(F)cc1,39
5,CS(=O)(=O)N[C@H](Cc1ccccc1)c1[nH]nc(-c2ccc(F)cc2)c1-c1ccncc1,17
6,C[C@H](NS(=O)(=O)c1ccc(-c2ccccn2)s1)c1[nH]nc(-c2ccc(F)cc2)c1-c1ccncc1,92
7,C[C@H](NC(=O)c1cc(F)ccc1F)c1[nH]nc(-c2ccc(F)cc2)c1-c1ccncc1,44
8,Cc1c(-c2ccncc2)c(-c2ccc(F)cc2)nn1CC(=O)NCCCN1CCN(C)CC1,30
9,COc1ccc(CC(=O)N[C@H](Cc2ccccc2)c2[nH]nc(-c3ccc(F)cc3)c2-c2ccncc2)cc1OC,21
10,CNC(=O)CC[C@H](NC(=O)c1ccncc1)c1[nH]nc(-c2ccc(F)cc2)c1-c1ccncc1,8
11,C[C@@H](NC(=O)[C@@H]1CCCN1)c1[nH]nc(-c2ccc(F)cc2)c1-c1ccncc1,27
12,C[C@@H](NC(=O)c1ccccc1Cl)c1[nH]nc(-c2ccc(F)cc2)c1-c1ccncc1,87
13,COC(=O)CCCC(=O)NCc1[nH]nc(-c2ccc(F)cc2)c1-c1ccncc1,20
14,O=C(NCc1[nH]nc(-c2ccc(F)cc2)c1-c1ccncc1)[C@@H]1CCCN1,22
15,O=C(N[C@H](Cc1ccccc1)c1[nH]nc(-c2ccc(F)cc2)c1-c1ccncc1)c1cccnc1,38
16,C[C@H](NC(=O)N1CCOCC1)c1[nH]nc(-c2ccc(F)cc2)c1-c1ccncc1,37
17,CC(C)=CC(=O)N[C@H](C)c1[nH]nc(-c2ccc(F)cc2)c1-c1ccncc1,28
18,O=C(NCc1[nH]nc(-c2ccc(F)cc2)c1-c1ccncc1)c1cnc2ccccc2n1,14
19,N#Cc1ccc(S(=O)(=O)N2CCC(c3[nH]nc(-c4ccc(F)cc4)c3-c3ccncc3)CC2)cc1,24
20,C[C@H](NC(=O)c1ccc(Cl)cc1)c1[nH]nc(-c2ccc(F)cc2)c1-c1ccncc1,32
21,CN(C)c1cccc2c(S(=O)(=O)NCCc3[nH]nc(-c4ccc(F)cc4)c3-c3ccncc3)cccc12,28
22,CC(C)COC(=O)N[C@H](C)c1[nH]nc(-c2ccc(F)cc2)c1-c1ccncc1,32
23,C[C@@H](NS(=O)(=O)c1ccc(F)c(Cl)c1)c1[nH]nc(-c2ccc(F)cc2)c1-c1ccncc1,98
24,C[C@H](NC(=O)N[C@@H](C)c1[nH]nc(-c2ccc(F)cc2)c1-c1ccncc1)c1ccccc1,29

row,Compound,inhibition [%]
1,CC(=O)Nc1ccc(S(=O)(=O)NCCc2[nH]nc(-c3ccc(F)cc3)c2-c2ccncc2)cc1,24
2,CCN(CC)C(=O)N[C@@H](C)c1[nH]nc(-c2ccc(F)cc2)c1-c1ccncc1,63
3,C[C@@H](NC(=O)c1c(F)ccc(F)c1F)c1[nH]nc(-c2ccc(F)cc2)c1-c1ccncc1,73
4,O=S(=O)(NCCc1[nH]nc(-c2ccc(F)cc2)c1-c1ccncc1)c1cc(Cl)cc(Cl)c1O,50
5,O=C(O)c1ccccc1S(=O)(=O)NCCc1[nH]nc(-c2ccc(F)cc2)c1-c1ccncc1,40
6,C[C@@H](NS(=O)(=O)c1ccc(F)cc1Cl)c1[nH]nc(-c2ccc(F)cc2)c1-c1ccncc1,81
7,CCOC(=O)c1cccc(NC(=O)NCc2[nH]nc(-c3ccc(F)cc3)c2-c2ccncc2)c1,14
8,COc1ccccc1C(=O)N[C@H](C)c1[nH]nc(-c2ccc(F)cc2)c1-c1ccncc1,23
9,C[C@H](NC(=O)c1ccno1)c1[nH]nc(-c2ccc(F)cc2)c1-c1ccncc1,28
10,CC(C)C(=O)N[C@H](C)c1[nH]nc(-c2ccc(F)cc2)c1-c1ccncc1,40
11,COc1ccc(NC(=O)NCc2[nH]nc(-c3ccc(F)cc3)c2-c2ccncc2)cc1,31
12,C[C@@H](NC(=O)c1c(F)cccc1F)c1[nH]nc(-c2ccc(F)cc2)c1-c1ccncc1,83
13,C[C@@H](NC(=O)c1ccccc1)c1[nH]nc(-c2ccc(F)cc2)c1-c1ccncc1,19
14,C[C@@H](NS(=O)(=O)c1ccc(-c2ccccn2)s1)c1[nH]nc(-c2ccc(F)cc2)c1-c1ccncc1,68
15,C[C@@H](NS(=O)(=O)c1cc(Cl)cc(Cl)c1)c1[nH]nc(-c2ccc(F)cc2)c1-c1ccncc1,91
16,Cc1ccc(S(=O)(=O)N2CCC(c3[nH]nc(-c4ccc(F)cc4)c3-c3ccncc3)CC2)cc1,14
17,CCCOC(=O)N[C@@H](C)c1[nH]nc(-c2ccc(F)cc2)c1-c1ccncc1,61
18,O=C(NCc1[nH]nc(-c2ccc(F)cc2)c1-c1ccncc1)c1ccc(F)c(C(F)(F)F)c1,22
19,Cc1ccc(S(=O)(=O)N[C@@H](Cc2ccccc2)C(=O)N[C@H](C)c2[nH]nc(-c3ccc(F)cc3)c2-c2ccncc2)cc1,10
20,C[C@H](NC(=O)c1ccc(C(F)(F)F)cc1)c1[nH]nc(-c2ccc(F)cc2)c1-c1ccncc1,29
21,C[C@@H](NS(=O)(=O)c1ccccc1Br)c1[nH]nc(-c2ccc(F)cc2)c1-c1ccncc1,80
22,O=S(=O)(c1cccc(C(F)(F)F)c1)N1CCC(c2[nH]nc(-c3ccc(F)cc3)c2-c2ccncc2)CC1,10
23,C[C@@H](NC(=O)Nc1cccc(F)c1)c1[nH]nc(-c2ccc(F)cc2)c1-c1ccncc1,27
24,C[C@@H](NC(=O)Nc1ccc(F)cc1)c1[nH]nc(-c2ccc(F)cc2)c1-c1ccncc1,35

row,Compound,inhibition [%]
1,CN(C)c1cccc2c(S(=O)(=O)NCc3[nH]nc(-c4ccc(F)cc4)c3-c3ccncc3)cccc12,2
2,C[C@H](NS(=O)(=O)c1ccc(Cl)s1)c1[nH]nc(-c2ccc(F)cc2)c1-c1ccncc1,95
3,Cc1noc(C)c1S(=O)(=O)NCCCc1[nH]nc(-c2ccc(F)cc2)c1-c1ccncc1,85
4,CCS(=O)(=O)N[C@@H](CCC(=O)NC)c1[nH]nc(-c2ccc(F)cc2)c1-c1ccncc1,13
5,O=C(NCc1[nH]nc(-c2ccc(F)cc2)c1-c1ccncc1)c1ccccc1Br,50
6,C[C@@H](NC(=O)c1cc(F)cc(C(F)(F)F)c1)c1[nH]nc(-c2ccc(F)cc2)c1-c1ccncc1,52
7,CNC(=O)N[C@H](C)c1[nH]nc(-c2ccc(F)cc2)c1-c1ccncc1,50
8,C[C@@H](NC(=O)c1ccccc1F)c1[nH]nc(-c2ccc(F)cc2)c1-c1ccncc1,75
9,CCCCOc1ccc(C(=O)NCc2[nH]nc(-c3ccc(F)cc3)c2-c2ccncc2)cc1,66
10,O=C(NCCc1[nH]nc(-c2ccc(F)cc2)c1-c1ccncc1)c1ccc(Cl)cc1,29
11,CCOC(=O)C(CC(C)C)NC(=O)NCc1[nH]nc(-c2ccc(F)cc2)c1-c1ccncc1 (configuration not stated),9
12,C[C@H](NS(=O)(=O)c1cccc(Cl)c1)c1[nH]nc(-c2ccc(F)cc2)c1-c1ccncc1,93
13,C[C@H](NC(=O)N[C@H](C)c1[nH]nc(-c2ccc(F)cc2)c1-c1ccncc1)c1ccccc1,25
14,COc1ccccc1C(=O)N[C@H](Cc1ccccc1)c1[nH]nc(-c2ccc(F)cc2)c1-c1ccncc1,2
15,Cc1ccc(F)cc1S(=O)(=O)N[C@@H](C)c1[nH]nc(-c2ccc(F)cc2)c1-c1ccncc1,72
16,Cn1cnc(S(=O)(=O)N2CCC(c3[nH]nc(-c4ccc(F)cc4)c3-c3ccncc3)CC2)c1,28
17,Cc1cc(C)c(S(=O)(=O)N[C@@H](C)c2[nH]nc(-c3ccc(F)cc3)c2-c2ccncc2)c(C)c1,87
18,C[C@@H](NS(=O)(=O)c1cc(Cl)c(Cl)s1)c1[nH]nc(-c2ccc(F)cc2)c1-c1ccncc1,75
19,O=[N+]([O-])c1cc(S(=O)(=O)NCc2[nH]nc(-c3ccc(F)cc3)c2-c2ccncc2)ccc1Cl,15
20,O=S(=O)(NCc1[nH]nc(-c2ccc(F)cc2)c1-c1ccncc1)c1c(Cl)cccc1Cl,43
21,O=C(Cc1cccc2ccccc12)NCc1[nH]nc(-c2ccc(F)cc2)c1-c1ccncc1,21
22,C[C@H](NC(=O)c1c(F)ccc(F)c1F)c1[nH]nc(-c2ccc(F)cc2)c1-c1ccncc1,67
23,O=C(NCc1[nH]nc(-c2ccc(F)cc2)c1-c1ccncc1)c1c(F)cccc1F,48
